Patent US8628771B2, “CA IX-specific inhibitors” (Institute of Virology Slovak Academy of Sciences, priority 2002, dated 2014)
Where two headings read alike, the source gives them in different places.

Experiments:
bCA IV = target: T1, bCA IV (Bos taurus, UniProt Q95323); assay: CA esterase activity assay, isozyme bCA IV; assay type: biochemical, bovine; conditions: read-out: KI bCA IV
T1 construct: CA IV was isolated from bovine lung microsomes as described by Maren et al; from tissue; host or cells: bovine lung microsomes
T1 sequence (Q95323 19-284): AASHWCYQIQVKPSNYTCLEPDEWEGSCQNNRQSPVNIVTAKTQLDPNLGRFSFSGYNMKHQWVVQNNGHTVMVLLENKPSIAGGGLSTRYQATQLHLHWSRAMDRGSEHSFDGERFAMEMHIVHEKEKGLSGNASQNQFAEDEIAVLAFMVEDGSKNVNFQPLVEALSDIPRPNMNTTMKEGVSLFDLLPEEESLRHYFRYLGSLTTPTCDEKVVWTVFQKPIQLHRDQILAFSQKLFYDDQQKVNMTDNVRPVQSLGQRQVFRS

hCA IX = hCA IX (Homo sapiens, UniProt Q16790); assay: CA CO2 hydrase activity assay, tumor-associated isozyme hCA IX
Method: An SX.18MV-R Applied Photophysics stopped-flow instrument has been used for assaying the CA CO2 hydration activity assays [44]. […] Inhibitor and enzyme solutions were preincubated together for 10 min at room temperature prior to assay, in order to allow for the formation of the E-I complex.

hCA I = target: T2, hCA I (Homo sapiens, UniProt P00915); assay: CA esterase activity assay, isozyme hCA I; assay type: biochemical
T2 construct: made in house; host or cells: Escherichia coli BL21 (DE3)
T2 sequence (P00915 whole entry): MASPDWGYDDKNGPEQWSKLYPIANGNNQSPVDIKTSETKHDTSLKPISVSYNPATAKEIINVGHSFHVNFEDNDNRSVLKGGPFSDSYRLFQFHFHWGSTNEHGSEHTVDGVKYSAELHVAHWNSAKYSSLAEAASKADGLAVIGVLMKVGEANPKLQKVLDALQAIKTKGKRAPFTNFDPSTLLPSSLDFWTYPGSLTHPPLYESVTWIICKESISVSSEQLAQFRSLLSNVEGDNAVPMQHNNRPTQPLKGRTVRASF

hCA II = target: T3, hCA II (Homo sapiens, UniProt P00918); assay: CA esterase activity assay, isozyme hCA II; assay type: biochemical
T3 construct: made in house; host or cells: Escherichia coli BL21 (DE3)
Method: Human CA I and CA II cDNAs were expressed in Escherichia coli strain BL21 (DE3) from the plasmids pACA/hCA I and pACA/hCA II described by Lindskog's group [54].
Non-enzymatic hydrolysis rates were always subtracted from the observed rates. […] Inhibitor and enzyme solutions were preincubated together for 10 min at room temperature prior to assay, in order to allow for the formation of the E-I complex. The inhibition constant KI was determined as described in references [44, 76].

[1] = Table 1, isolated from bovine lung microsomes, esterase assay method
[2] = read-out: KI hCA IX, Table 1, human cloned isozyme, CO2 hydrase assay method
[3] = Table 1, human cloned isozymes, esterase assay method, read-out: KI hAC I
[4] = read-out: KI hCA IX, Table 2, catalytic domain of the human, cloned isozyme
[5] = Table 2, human (cloned) isozymes, read-out: KI hCA I
[6] = Table 2, from bovine lung microsomes
[7] = Table 2, human (cloned) isozymes, read-out: KI hCA II

CCN[C@H]1CN(CCCOC)S(=O)(=O)c2sc(S(N)(=O)=O)cc21 [BRZ, brinzolamide, reference compound]
Ki (bCA IV; [1]): 45 nM

Nc1ccccc1S(N)(=O)=O [Compound 1]
Ki (hCA IX; [2]): 33 nM | Ki (bCA IV; [1]): 1310 nM

Nc1ccc(S(N)(=O)=O)cc1 [Compound 3, sulfanilamide]
Ki (bCA IV): 3000 nM

NNc1ccc(S(N)(=O)=O)cc1 [Compound 4, 4-hydrazino-benzenesulfonamide]
Ki (hCA I; [3]): 78500 nM | Ki (bCA IV; [1]): 3220 nM

NCc1ccc(S(N)(=O)=O)cc1 [Compound 5, homosulfanilamide]
Ki (hCA IX; read-out: KI hCA IX): 103 nM

Nc1ccc(S(N)(=O)=O)cc1F [Compound 7]
Ki (hCA IX; [2]): 245 nM | Ki (bCA IV; [1]): 180 nM

Nc1ccc(S(N)(=O)=O)cc1Cl [Compound 8]
Ki (hCA IX; [2]): 264 nM

Nc1ccc(S(N)(=O)=O)cc1Br [Compound 9]
Ki (bCA IV; [1]): 66 nM

Nc1ccc(S(N)(=O)=O)cc1I [Compound 10]
Ki (hCA IX; [2]): 285 nM | Ki (hCA I; [3]): 6000 nM | Ki (bCA IV; [1]): 125 nM

Nc1cc(C(F)(F)F)c(S(N)(=O)=O)cc1S(N)(=O)=O [Compound 11]
Ki (bCA IV; [1]): 154 nM

Cn1nc(S(N)(=O)=O)sc1=N [Compound 14]
Ki (hCA IX; [2]): 30 nM

Nc1ccc(S(=O)(=O)Nc2ccc(S(N)(=O)=O)cc2)cc1 [Compound 16]
Ki (hCA IX; [2]): 34 nM | Ki (bCA IV; [1]): 129 nM

Nc1ccc(S(=O)(=O)Nc2ccccc2S(N)(=O)=O)cc1 [Compound 17]
Ki (hCA I; [3]): 185 nM | Ki (bCA IV; [1]): 144 nM

Nc1ccc(S(=O)(=O)NCc2ccc(S(N)(=O)=O)cc2)cc1 [Compound 18]
Ki (bCA IV; [1]): 72 nM

Nc1ccc(S(=O)(=O)NCCc2ccc(S(N)(=O)=O)cc2)cc1 [Compound 19]
Ki (hCA IX; [2]): 24 nM | Ki (bCA IV; [1]): 72 nM

Nc1nccc(Nc2ccc(S(N)(=O)=O)cc2)n1 [Compound 20]
Ki (hCA IX; read-out: KI against CA IX, text discussion of Tables 1-3): 16 to 32 nM | Ki (hCA IX; [2]): 16 nM | Ki (bCA IV; [1]): 154 nM

NS(=O)(=O)c1cccc2cccnc12 [Compound 22]
Ki (hCA IX; [2]): 32 nM | Ki (bCA IV; [1]): 415 nM

NS(=O)(=O)c1cccc2ccccc12 [Compound 23]
Ki (hCA IX; [2]): 30 nM | Ki (bCA IV; [1]): 438 nM

NS(=O)(=O)c1ccc(CO)cc1 [Compound 24]
Ki (hCA IX; [2]): 21 nM

NS(=O)(=O)c1ccc(CCO)cc1 [Compound 25]
Ki (hCA IX; [2]): 22 nM | Ki (bCA IV; [1]): 450 nM

NS(=O)(=O)c1ccc(C(=O)O)cc1 [Compound 26]
Ki (hCA IX; [2]): 26 nM | Ki (bCA IV; [1]): 86 nM

CC(C)c1cc(-c2ccccc2)cc(C(C)C)[n+]1-c1ccc(S(N)(=O)=O)cc1 [Compound 31]
Ki (hCA IX; [4]): 160 nM | Ki (hCA I; [5]): 5000 nM | Ki (bCA IV; [6]): 90 nM

Cc1cc(-c2ccccc2)cc(C)[n+]1Cc1ccc(S(N)(=O)=O)cc1 [Compound 42]
Ki (hCA IX; [4]): 26 nM | Ki (hCA I; [5]): 4000 nM | Ki (bCA IV; [6]): 70 nM

CC(C)c1cc(-c2ccccc2)cc(C(C)C)[n+]1Cc1ccc(S(N)(=O)=O)cc1 [Compound 45]
Ki (hCA IX; [4]): 100 nM | Ki (hCA I; [5]): 12000 nM | Ki (hCA II; [7]): 61 nM

CC(C)c1cc(-c2ccccc2)cc(-c2ccccc2)[n+]1Cc1ccc(S(N)(=O)=O)cc1 [Compound 49]
Ki (hCA IX; [4]): 80 nM | Ki (hCA I; [5]): 112000 nM | Ki (hCA II; [7]): 370 nM

Cc1cc(C)[n+](CCc2ccc(S(N)(=O)=O)cc2)c(C)c1.[O-][Cl+3]([O-])([O-])[O-] [Compound 55]
Ki (hCA IX; [4]): 14 nM

CC(C)c1cc(-c2ccccc2)cc(C(C)C)[n+]1CCc1ccc(S(N)(=O)=O)cc1 [Compound 61]
Ki (hCA IX): 64 to 135 nM | Ki (hCA IX; [4]): 89 nM | Ki (hCA I; [5]): 6000 nM | Ki (hCA II; [7]): 21 nM

Cc1cc(-c2ccccc2)cc(-c2ccccc2)[n+]1CCc1ccc(S(N)(=O)=O)cc1 [Compound 62]
Ki (hCA IX): 6 to 54 nM | Ki (hCA IX; [4]): 37 nM | Ki (hCA I; [5]): 18000 nM | Ki (hCA II; [7]): 103 nM

Cc1cc(-c2ccccc2)[n+](-c2ccc(S(=O)(=O)Nc3nnc(S(N)(=O)=O)s3)cc2)c(-c2ccccc2)c1 [Compound 86]
Ki (hCA IX): 12 to 35 nM | Ki (hCA IX; read-out: KI hCA IX, Table 3, catalytic domain of the human, cloned isozyme, CO2 hydrase assay method): 12 nM | Ki (hCA II; Table 3, human (cloned) isozymes, esterase assay method, read-out: KI hCA II): 4.78 nM | Ki (hCA II; read-out: KI against CA II): 3.13 to 5.96 nM

NS(=O)(=O)c1ccc(S(=O)(=O)Nc2cccc3c(Cl)c[nH]c23)cc1 [indisulam, reference compound]
Ki (bCA IV; [6]): 65 nM | Ki (bCA IV; Table 3, from bovine lung microsomes, esterase assay method): 65 nM
